Results taken from the NIST ThermoML archive (doi:10.1021/je300153f).
± gives the expanded uncertainty stated by the source.

Settings: for mass density / electrical conductivity / viscosity: 101.33 kPa; for mass density / electrical conductivity / surface tension liquid-gas / viscosity: Liquid; for electrical conductivity: MP522 conductivity meter; for surface tension liquid-gas: Maximal bubble pressure; for viscosity: Capillary tube (Ostwald / Ubbelohde) method

CCCC[n+]1cccc(C)c1.O=S(=O)([N-]S(=O)(=O)C(F)(F)F)C(F)(F)F
Settings	electrical conductivity [S/m]	mass density [kg/m3]	surface tension liquid-gas [mN/m]	viscosity [mPa·s]
278.15 K	0.1 ± 0.002	1439.9 ± 5.8	–	–
283.15 K	0.132 ± 0.003	1435.7 ± 5.8	29.2 ± 0.3	–
288.15 K	0.172 ± 0.004	1431.5 ± 5.7	28.8 ± 0.3	–
293.15 K	0.217 ± 0.005	1427.1 ± 5.7	28.4 ± 0.3	–
298.15 K	0.272 ± 0.006	1422.6 ± 5.7	28.2 ± 0.3	63.2 ± 1.4
303.15 K	0.335 ± 0.007	1418.3 ± 5.7	27.8 ± 0.3	51.1 ± 1.1
308.15 K	0.409 ± 0.009	1414.2 ± 5.7	27.4 ± 0.3	41.4 ± 0.9
313.15 K	0.49 ± 0.01	1409.8 ± 5.7	27.2 ± 0.3	34 ± 0.8
318.15 K	0.576 ± 0.012	1405.1 ± 5.6	26.7 ± 0.3	28.4 ± 0.6
323.15 K	0.69 ± 0.014	1400.7 ± 5.6	26.4 ± 0.3	23.9 ± 0.5
328.15 K	0.796 ± 0.017	1396.4 ± 5.6	26.1 ± 0.3	20.3 ± 0.4
333.15 K	0.91 ± 0.019	1392.1 ± 5.6	25.8 ± 0.3	17.5 ± 0.4
338.15 K	1.03 ± 0.021	1387.6 ± 5.6	25.4 ± 0.3	15.2 ± 0.3
343.15 K	1.16 ± 0.024	–	–	13 ± 0.3
348.15 K	1.3 ± 0.027	–	–	11.3 ± 0.3
353.15 K	1.44 ± 0.029	–	–	10 ± 0.2

Settings	Glass transition temperature [°C]
Glass, DTA	-82.3 ± 3
